Experimental data taken from the NIST ThermoML archive (doi:10.1007/s10765-013-1526-8).

How the values were obtained:
[1] = refractive index (Na D-line) (dimensionless); xn = mol fraction of the nth substance listed; conditions: 101 kPa, Liquid
[2] = xn = mol fraction of the nth substance listed; conditions: 101 kPa, Liquid; for speed of sound: Sing-around technique in a fixed-path interferometer

CCCCC(CC)CO (stereo not given) [2-ethyl-1-hexanol] + c1ccccc1
Conditions	mass density, [2] [kg/m3]	refractive index, [1]	speed of sound, [2] [m/s]	viscosity, [2] [mPa·s]
298.15 K, x2 = 0	829.07	1.4287	1319	8.418
298.15 K, x2 = 0.0606	829.89	1.4332	1313	7.185
298.15 K, x2 = 0.1203	830.77	1.4376	1308	6.102
298.15 K, x2 = 0.1798	831.79	1.4418	1304	5.153
298.15 K, x2 = 0.2384	832.95	1.4463	1299	4.364
298.15 K, x2 = 0.3132	834.73	1.4519	1293	3.469
298.15 K, x2 = 0.3915	836.9	1.4577	1288	2.697
298.15 K, x2 = 0.4515	838.87	1.4624	1283	2.222
298.15 K, x2 = 0.526	841.73	1.468	1278	1.749
298.15 K, x2 = 0.5849	844.27	1.4726	1275	1.474
298.15 K, x2 = 0.6557	847.83	1.4778	1273	1.202
298.15 K, x2 = 0.726	851.85	1.4829	1272	1.008
298.15 K, x2 = 0.7937	856.26	1.4877	1273	0.866
298.15 K, x2 = 0.8592	861.07	1.492	1276	0.764
298.15 K, x2 = 0.9299	867.04	1.4953	1284	0.68
303.15 K, x2 = 0	825.39	1.4266	1301	7.144
303.15 K, x2 = 0.0606	826.11	1.4312	1297	5.969
303.15 K, x2 = 0.1203	826.92	1.4355	1292	4.984
303.15 K, x2 = 0.1798	827.89	1.4397	1287	4.114
303.15 K, x2 = 0.2384	828.98	1.4442	1282	3.409
303.15 K, x2 = 0.3132	830.66	1.4499	1275	2.624
303.15 K, x2 = 0.3915	832.74	1.4557	1269	2.002
303.15 K, x2 = 0.4515	834.63	1.4604	1264	1.621
303.15 K, x2 = 0.526	837.35	1.4661	1258	1.305
303.15 K, x2 = 0.5849	839.78	1.4708	1255	1.127
303.15 K, x2 = 0.6557	843.22	1.4761	1252	0.953
303.15 K, x2 = 0.726	847.09	1.4811	1252	0.852
303.15 K, x2 = 0.7937	851.36	1.4858	1253	0.758
303.15 K, x2 = 0.8592	856.01	1.4899	1256	0.701
303.15 K, x2 = 0.9299	861.77	1.4934	1264	0.654
308.15 K, x2 = 0	821.68	1.4245	1283	6.09
308.15 K, x2 = 0.0606	822.28	1.4292	1278	5.084
308.15 K, x2 = 0.1203	823.05	1.4335	1273	4.22
308.15 K, x2 = 0.1798	823.96	1.4378	1269	3.49
308.15 K, x2 = 0.2384	825.01	1.4423	1265	2.903
308.15 K, x2 = 0.3132	826.61	1.448	1260	2.272
308.15 K, x2 = 0.3915	828.57	1.4539	1255	1.741
308.15 K, x2 = 0.4515	830.4	1.4585	1252	1.451
308.15 K, x2 = 0.526	832.98	1.4642	1248	1.174
308.15 K, x2 = 0.5849	835.32	1.4689	1245	1.02
308.15 K, x2 = 0.6557	838.62	1.4743	1242	0.881
308.15 K, x2 = 0.726	842.36	1.4793	1240	0.785
308.15 K, x2 = 0.7937	846.49	1.4839	1239	0.713
308.15 K, x2 = 0.8592	850.99	1.4879	1240	0.659
308.15 K, x2 = 0.9299	856.56	1.4913	1243	0.605
